Molecules are shown by their SMILES. In brackets after ≈: the same amount, converted by molar mass.

These results are taken from patent US5409938A, “Antimalarial korupensamines and pharmaceutical compositions and medical uses thereof” (The United States of America as represented by the …, priority 1994, dated 1995).

For assay [1] the following is noted: Bringmann, et al., DE 41 17 080; cited from earlier work.
For assay [2] the following is noted: Sharma, et al., 1975; cited from earlier work.
The conditions of assay [3]: Ruangrungsi, et al., 1985; cited from earlier work.
For assay [4], the system named is Spodoptera littoralis. As to conditions: larvae of Spodoptera littoralis; Grimm 1992; Bringmann 1992; cited from earlier work.
The subject of assay [5] is Plasmodium berghei. Description: in vitro antimalarial activity, 3H-hypoxanthine incorporation, P. berghei (Anka strain). The format is cell-based. The note with it: averages of 6 repeat tests.
For assay [6], the system named is P. berghei (Anka strain). Description: in vivo antimalarial activity in P. berghei-infected OF1 mice, parasitemia from blood smears after 4 days. The protocol:
Outbred, female, six-week-old OF1 mice (six mice per group treated and nontreated [control]) were inoculated intraperitoneally on day 0 with 10^6 P. berghei (Anka strain) blood forms. Two hours later, they were administered orally 50 mg/kg of korupensamine A. A second, third, and fourth treatment (50 mg/kg each) was given after 24, 48, and 72 h respectively (days 1, 2, and 3). […] The parasitemia (%) in the control (not drug treated) group was 2.45 (range 2.21-2.69; N=6) compared to 0.69 (range 0.48-0.91; N=6) for the treated group.

Assay [7] concerns Plasmodium falciparum. Description: in vitro antimalarial activity, 3H-hypoxanthine incorporation, P. falciparum (strain NF 54/64, clone A1A9) in human erythrocytes. The format is cell-based. The note with it: averages of 6 repeat tests. The protocol: This example illustrates the antimalarial activity of the korupensamines of the present invention. […] Continuous in vitro cultures of asexual erythrocytic stages of P. falciparum (strain NF 54/64, clone A1A9) were maintained following essentially the method of Trager and Jensen (Science, 193, 673-675, 1976) at 37° C. under an atmosphere of 5% CO2, 5% O2, and 90% N2. The host cells were human erythrocytes (A or O Rh+). The culture medium was RPMI 1640 (Gibco), containing HEPES (BDH; 4.57 gL^-1) glucose (Sigma; 1.54 gL^-1), 5% NaHCO3 (Merck; 34.78 mlL^-1),and gentamycin (Merck; 8.70 mlL^-1) supplemented with 10% human plasma (A Rh+). Parasites were subinoculated every 3-4 days with initial conditions of 1% parasitemia and 1% hematocrit.
In vitro testing with P. falciparum was as follows. Each compound was dissolved in DMSO at a concentration of 20 mg ml^-1. These solutions were further diluted with physiological saline to obtain a stock solution of 500 μg ml^-1. […]
The test protocol was performed in vitro, based upon the method of Desjardins, et al. (Antimicrobial Agents Chemother., 16, 710-718, 1979). […] The filter papers were dried for 2 h at 52° C. and their radioactivity was measured by liquid scintillation counting in Optiscint HiSafe (LKB Pharmacia).
The mean results, obtained as counts per min (cpm), were expressed as percentages of incorporation or growth inhibition. […]

As for `COc1cc(C)cc2ccc(-c3ccc4c(c3O)[C@@H](C)N[C@H](C)C4)c(O)c12` [Dioncophylline B], in assay [1], the activity as fungicides result is “active as fungicides”.

For `COc1cc2c(c(OC)c1-c1c(C)cc3cccc(OC)c3c1O)C(C)=N[C@@H](C)C2` [ancistrocladidine], the spasmolytic activity result in assay [2] was “pronounced spasmolytic activity”.

In the case of `COc1cc2c(c(OC)c1-c1c(C)cc3cccc(OC)c3c1O)[C@@H](C)N(C)[C@@H](C)C2` [ancistrotectorine], the antitumor activity result in assay [3] is given as “antitumor activity”.

`COc1cccc2c(-c3ccc4c(c3O)C(C)NC(C)C4)c(C)cc(OC)c12` (centres unmarked) [dioncophylline A]: in assay [1], the activity as fungicides result is recorded as “active as fungicides”. Besides, the antifeedant effect result in assay [4] was “antifeedant effect against the larvae of Spodoptera littoralis”.

Consider `COc1cc(C)cc2c(-c3c(O)cc(O)c4c3C[C@@H](C)N[C@@H]4C)ccc(O)c12` [korupensamine A], for which the IC50 in assay [5] (Plasmodium berghei) stood at 0.555 µg/mL (≈ 1.46 µM); in assay [7] (Plasmodium falciparum, Erythrocyte, NP54/64, clone A1A9, read-out: IC50 P. faciparum), 0.307 µg/mL (≈ 0.809 µM). In addition, the “parasitemia (%) in the treated group” value in assay [6] (50 mg/kg orally x4 (2 h after inoculation, then 24, 48, 72 h), after 4 days, N=6, control 2.45 (range 2.21-2.69; N=6)) is listed as 0.69 (range 0.48-0.91; N=6) %. Moreover, in assay [6] (50 mg/kg orally x4, blood smears after 4 days), the “inhibition of the development of P. berghei erythrocytic forms” value was “marked inhibition of the development of P. berghei erythrocytic forms”.

Regarding `COc1cc(C)cc2c(-c3c(O)cc(O)c4c3C[C@@H](C)N[C@@H]4C)ccc(O)c12` [korupensamine B], the “IC50 P. berghei” value in assay [5] was 0.490 µg/mL (≈ 1.29 µM). Also, the “IC50 P. faciparum” value in assay [7] (NP54/64, clone A1A9) was 0.175 µg/mL (≈ 0.461 µM).

A word on the IC50: it is the point on the concentration scale where inhibition reaches its midpoint.
